This note sets out measurements from patent US20030224485A1, “Expression system for ABC transporters” (priority 2002, published 2003).

Assay [1] has as its target T1, co-expressed N and C halves of ABCR (Homo sapiens, UniProt P78363).
T1 construct: N-half (amino acids 1-1325) and C-half (amino acids 1326-2273) of ABCR; added initiator Met (ATG in the forward primer, read by me) (N); made in house; host or cells: COS-1 (co-transfection)
T1 sequence (P78363 1-1325): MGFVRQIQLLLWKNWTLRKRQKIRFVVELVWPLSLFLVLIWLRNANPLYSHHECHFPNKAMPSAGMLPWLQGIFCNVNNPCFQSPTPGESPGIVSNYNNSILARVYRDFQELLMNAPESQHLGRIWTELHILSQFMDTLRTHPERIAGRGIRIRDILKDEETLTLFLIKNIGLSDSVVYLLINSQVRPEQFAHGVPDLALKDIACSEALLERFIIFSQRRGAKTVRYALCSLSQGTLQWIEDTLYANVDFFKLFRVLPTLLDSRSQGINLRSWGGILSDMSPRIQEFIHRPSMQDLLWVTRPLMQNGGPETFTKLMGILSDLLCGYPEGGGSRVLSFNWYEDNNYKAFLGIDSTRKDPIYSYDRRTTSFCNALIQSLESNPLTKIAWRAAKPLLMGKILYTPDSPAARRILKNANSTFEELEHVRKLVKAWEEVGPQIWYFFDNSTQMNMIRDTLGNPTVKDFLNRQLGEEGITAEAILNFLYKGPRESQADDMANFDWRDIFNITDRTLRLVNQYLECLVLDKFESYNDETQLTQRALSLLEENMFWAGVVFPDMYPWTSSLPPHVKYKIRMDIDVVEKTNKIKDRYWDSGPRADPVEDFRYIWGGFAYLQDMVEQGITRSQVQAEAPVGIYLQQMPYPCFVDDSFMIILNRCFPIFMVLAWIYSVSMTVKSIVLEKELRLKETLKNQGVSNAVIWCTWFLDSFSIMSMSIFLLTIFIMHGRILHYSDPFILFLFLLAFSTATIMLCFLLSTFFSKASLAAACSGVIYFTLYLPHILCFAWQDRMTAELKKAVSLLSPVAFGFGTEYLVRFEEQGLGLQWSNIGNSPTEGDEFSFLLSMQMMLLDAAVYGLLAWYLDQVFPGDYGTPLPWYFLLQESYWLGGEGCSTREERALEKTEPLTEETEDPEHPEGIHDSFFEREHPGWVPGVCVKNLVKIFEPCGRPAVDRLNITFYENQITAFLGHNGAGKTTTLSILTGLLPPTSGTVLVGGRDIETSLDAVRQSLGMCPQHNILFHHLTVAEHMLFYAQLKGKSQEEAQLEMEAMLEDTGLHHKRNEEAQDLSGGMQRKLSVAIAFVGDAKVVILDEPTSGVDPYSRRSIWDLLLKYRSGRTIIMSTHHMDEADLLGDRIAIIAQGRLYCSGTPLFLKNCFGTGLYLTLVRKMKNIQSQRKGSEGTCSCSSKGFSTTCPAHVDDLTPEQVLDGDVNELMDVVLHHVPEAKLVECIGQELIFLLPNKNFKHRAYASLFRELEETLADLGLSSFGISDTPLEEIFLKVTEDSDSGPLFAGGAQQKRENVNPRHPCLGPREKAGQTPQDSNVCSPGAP
T1 sequence (P78363 1326-2273): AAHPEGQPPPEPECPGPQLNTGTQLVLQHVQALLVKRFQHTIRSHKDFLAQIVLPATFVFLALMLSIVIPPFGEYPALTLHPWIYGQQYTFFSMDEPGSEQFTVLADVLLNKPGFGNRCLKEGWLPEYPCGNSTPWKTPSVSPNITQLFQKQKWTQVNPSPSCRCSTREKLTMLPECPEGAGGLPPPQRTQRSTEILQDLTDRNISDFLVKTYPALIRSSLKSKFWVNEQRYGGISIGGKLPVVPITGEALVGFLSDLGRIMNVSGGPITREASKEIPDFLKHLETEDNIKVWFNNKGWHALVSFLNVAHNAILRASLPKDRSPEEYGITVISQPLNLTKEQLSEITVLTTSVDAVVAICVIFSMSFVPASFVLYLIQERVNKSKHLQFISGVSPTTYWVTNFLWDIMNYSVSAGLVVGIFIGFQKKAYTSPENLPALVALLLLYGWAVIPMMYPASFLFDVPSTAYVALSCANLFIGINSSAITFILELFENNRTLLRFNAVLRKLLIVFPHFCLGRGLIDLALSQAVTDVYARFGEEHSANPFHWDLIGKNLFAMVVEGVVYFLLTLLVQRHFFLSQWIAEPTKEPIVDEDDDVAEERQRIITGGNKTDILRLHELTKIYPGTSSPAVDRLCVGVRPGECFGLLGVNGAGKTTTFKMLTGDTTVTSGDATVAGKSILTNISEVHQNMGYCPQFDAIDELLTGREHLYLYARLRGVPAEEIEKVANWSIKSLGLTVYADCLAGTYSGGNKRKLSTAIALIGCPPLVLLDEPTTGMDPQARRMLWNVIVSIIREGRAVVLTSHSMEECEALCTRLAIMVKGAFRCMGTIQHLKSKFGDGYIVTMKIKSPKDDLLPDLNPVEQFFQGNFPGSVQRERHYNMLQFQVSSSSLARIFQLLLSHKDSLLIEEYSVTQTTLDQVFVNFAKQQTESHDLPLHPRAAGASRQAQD
As to the kind of experiment: 8-azido-ATP photoaffinity labeling of membranes from transfected cells. Format: binding. The following applies: 1 mM ATP added prior to labeling with 1.5 μM 8-azido-[α-32P]ATP; FIG. 5A lane 4; C-half labeled. How it is done: (§1) Preparation of Membranes—Membranes from transfected cells were prepared as described previously (Bungert, S., Molday, L. L., and Molday, R. S. (2001) J Biol Chem 276(26), 23539-46). In some experiments, the protocol was scaled down and the cell homogenate from one or two 10-cm dishes, after passing through a 26-gauge needle (6 times), was centrifuged on a discontinuous gradient consisting of 5% and 60% sucrose for 30 min at 30,000 rpm (60,000×g) in a TLS55 rotor (Beckman Optima TL ultracentrifuge).
(§2) 8-Azido-ATP Photoaffinity Labeling—Membranes (50-150 μg protein) in 50 μl of labeling buffer (20 mM Tris-HCl, pH 7.4, 140 mM NaCl, 5 mM MgCl2) were incubated with 1-4 μM 8-azido-[α-^32P]ATP (Perkin-Elmer Life Science; 20 Ci/mmol) on ice, with gentle shaking, under UV light (254 nm) for 10 min at a distance of 10 cm. Ice-cold 20 mM Tris-HCl, pH 7.4, was added and the membranes were collected by centrifugation (TLA45 rotor, 55000 g, 15 min). The membrane suspension (200 μl in TBS [Tris-HCl, pH 7.4, 140 mM NaCl]) was added to 200 μl of 2% Triton X-100 in TBS, pH 7.4). After 30 min on ice, the cleared extract was mixed with 25 μl antibody coupled to Sepharose 2B for 1-12 h at 4° C. The beads were washed 4 times in TBS containing 0.2% Triton X-100 and eluted twice, 30 μl each, in 4% SDS, 0.2% Triton X-100, TBS. […]

Assay [2] concerns the target T2, full-length ABCR (Homo sapiens, UniProt P78363). Described as above. Conditions: 1 mM ATP added prior to labeling with 1.5 μM 8-azido-[α-32P]ATP; FIG. 5A lane 2. Format: binding. Details: Membranes from transfected cells expressing either full-length ABCR (lanes 1 & 2); expressed in transfected cells; host or cells: transfected cells (COS-1 or EBNA293). As to the method:
as §1, §2

The target of another assay is T3, ABCR (Homo sapiens, UniProt P78363).
T3 construct: Membranes from transfected cells expressing either full-length ABCR (lanes 1 & 2) or co-expressing the N and C halves; expressed in transfected cells; host or cells: transfected cells (COS-1 or EBNA293)
As to the kind of experiment: 8-azido-ATP/ADP trapping in membranes from transfected cells. Format: binding. Conditions: 5 μM 8-azido-[α-32P]ATP, 37° C.; 800 μM orthovanadate, 50 μM all-trans retinal, or 10 mM MgATP in wash step. How it is done: 8-Azido-ATP Trapping—Membranes were incubated with 5 [M 8-azido-[α-^32P]ATP in 50 μl of labeling buffer with or without 800 μM sodium orthovanadate for 10 min at 37° C. All-trans retinal and 50 μM DTT were added where indicated. Binding was stopped by the addition of ice-cold 20 mM Tris-HCl, pH 7.4, the membranes were collected by centrifugation and washed one more time. Samples exposed to orthovanadate were washed in the presence of 800 μM orthovanadate. In some experiments MgATP (10 mM) was included in the wash step, but had no effect. The membranes were suspended in 30 μl of 20 mM Tris-HCl, pH 7.4, irradiated with UV light for 10 min on ice, diluted to 200 μl with TBS, pH 7.4, and solubilized as described above for azido-ATP binding.
To gain more insight into the properties of the NBD of ABCR, trapping experiments were carried out using 8-azido-[α^32P]ATP.

Assay [3] addresses T1, co-expressed N and C halves of ABCR. As to the kind of experiment: Retinal-stimulated ATPase activity of purified protein reconstituted in lipid vesicles. In kind it is biochemical. The following applies: co-expressed in COS-1 cells, purified on Rim 3F4 column, 50 μM [α32P]ATP. How it is done: (§3) Membranes (from two 10 cm dishes) were solubilized in 0.5 ml of 1% Triton-X100 in Buffer A (140 mM NaCl, 20 mM Tris-HCl, pH 7.4) for 20 min on ice. For ATPase assays, the membrane preparation step was omitted and the cell suspension was solubilized directly in Buffer B (10 mg/ml soybean phospholipids, 10% glycerol, 1 mM dithiothreitol, 100 mM NaCl, 3 mM MgCl2, 50 mM NaHEPES, pH 7.4) containing 18 mM CHAPS. The supernatant after a 10 min centrifugation at 40,000 rpm (TLA100.4 rotor) was mixed with 50 μl Rim3F4 Sepharose 2B for 1 h at 4° C. The beads were washed 6 times in Buffer A containing 0.2% Triton X-100 or Buffer B containing 10 mM CHAPS and eluted with 4% SDS (for electrophoresis) or 0.2 mg/ml Rim3F4 peptide (for reconstitution and determination of ATPase activity). Purified protein (24 μl) was incubated with 6 μl of 50 mg/ml lipid (1:1 mixture of dioleoylphosphatidylethanolamine and brain polar lipid, by weight) and 3 μl n-octylglucoside for 30 min on ice. The mixture was diluted rapidly with 200 μl of Buffer C (1 mM dithiothreitol, 140 mM NaCl, 25 mM NaHEPES, pH 7.4) and passed through a 200 μl Extracti-gel column (Pierce). The flow-through containing the reconstituted protein was used for determination of ATPase activity.
(§4) ATPase activity was measured as described previously (Ahn, J., Wong, J. T., and Molday, R. S. (2000) J Biol Chem 275(27), 20399-405) using 50 μM [α^32P]ATP and thin layer chromatography. The all-trans retinal concentration was determined spectrophotometrically (λ383 nm=42.88 mM^−1 cm^−1). Protein concentration was estimated from the eluate before reconstitution by laser densitometry of Coomassie blue stained gels using bovine serum albumin as a standard. […] Direct protein measurements after reconstitution by densitometry of Western blots was about half of that in the eluate. […]
(§5) ATPase Activity of Expressed N and C Halves—The basal and retinal activated ATPase activity of full-length ABCR and the N and C halves individually or co-expressed in COS-1 cells was determined after immunoaffinity purification and reconstitution into lipid vesicles. […]

In assay [4] the target is T4, individually expressed C half of ABCR (Homo sapiens, UniProt P78363).
T4 construct: N-half (amino acids 1-1325) and C-half (amino acids 1326-2273) of ABCR; added initiator Met (ATG in the forward primer, read by me) (N); made in house; host or cells: COS-1
T4 sequence (P78363 1326-2273): T1 sequence (P78363 1326-2273)
The description is as above. Format: biochemical. Conditions: individually expressed in COS-1 cells. As to the method:
as §3, §4, §5

Assay [5] addresses T5, individually expressed N half of ABCR containing 1D4 epitope tag (N*) (Homo sapiens, UniProt P78363).
T5 construct: N-half (amino acids 1-1325) and C-half (amino acids 1326-2273) of ABCR; made in house; host or cells: COS-1
T5 sequence (P78363 1-1325): T1 sequence (P78363 1-1325)
Described as above. In kind it is biochemical. The following applies: individually expressed in COS-1 cells, purified on Rho1D4-Sepharose. As to the method:
as §3, §4, §5

The target in assay [6] is T2, full-length ABCR. Described as above. The following applies: expressed in COS-1 cells, purified on Rim 3F4 column, 50 μM [α32P]ATP. Details: Membranes from transfected cells expressing either full-length ABCR (lanes 1 & 2) or co-expressing the N and C halves; expressed in transfected cells; host or cells: transfected cells (COS-1 or EBNA293). In kind it is biochemical. How it is done: Membranes (from two 10 cm dishes) were solubilized in 0.5 ml of 1% Triton-X100 in Buffer A (140 mM NaCl, 20 mM Tris-HCl, pH 7.4) for 20 min on ice. For ATPase assays, the membrane preparation step was omitted and the cell suspension was solubilized directly in Buffer B (10 mg/ml soybean phospholipids, 10% glycerol, 1 mM dithiothreitol, 100 mM NaCl, 3 mM MgCl2, 50 mM NaHEPES, pH 7.4) containing 18 mM CHAPS. The supernatant after a 10 min centrifugation at 40,000 rpm (TLA100.4 rotor) was mixed with 50 μl Rim3F4 Sepharose 2B for 1 h at 4° C. The beads were washed 6 times in Buffer A containing 0.2% Triton X-100 or Buffer B containing 10 mM CHAPS and eluted with 4% SDS (for electrophoresis) or 0.2 mg/ml Rim3F4 peptide (for reconstitution and determination of ATPase activity). […]
ATPase activity was measured as described previously (Ahn, J., Wong, J. T., and Molday, R. S. (2000) J Biol Chem 275(27), 20399-405) using 50 μM [α^32P]ATP and thin layer chromatography. The all-trans retinal concentration was determined spectrophotometrically (λ383 nm=42.88 mM^−1 cm^−1). […]
as §5

T3 sequence (P78363 whole entry): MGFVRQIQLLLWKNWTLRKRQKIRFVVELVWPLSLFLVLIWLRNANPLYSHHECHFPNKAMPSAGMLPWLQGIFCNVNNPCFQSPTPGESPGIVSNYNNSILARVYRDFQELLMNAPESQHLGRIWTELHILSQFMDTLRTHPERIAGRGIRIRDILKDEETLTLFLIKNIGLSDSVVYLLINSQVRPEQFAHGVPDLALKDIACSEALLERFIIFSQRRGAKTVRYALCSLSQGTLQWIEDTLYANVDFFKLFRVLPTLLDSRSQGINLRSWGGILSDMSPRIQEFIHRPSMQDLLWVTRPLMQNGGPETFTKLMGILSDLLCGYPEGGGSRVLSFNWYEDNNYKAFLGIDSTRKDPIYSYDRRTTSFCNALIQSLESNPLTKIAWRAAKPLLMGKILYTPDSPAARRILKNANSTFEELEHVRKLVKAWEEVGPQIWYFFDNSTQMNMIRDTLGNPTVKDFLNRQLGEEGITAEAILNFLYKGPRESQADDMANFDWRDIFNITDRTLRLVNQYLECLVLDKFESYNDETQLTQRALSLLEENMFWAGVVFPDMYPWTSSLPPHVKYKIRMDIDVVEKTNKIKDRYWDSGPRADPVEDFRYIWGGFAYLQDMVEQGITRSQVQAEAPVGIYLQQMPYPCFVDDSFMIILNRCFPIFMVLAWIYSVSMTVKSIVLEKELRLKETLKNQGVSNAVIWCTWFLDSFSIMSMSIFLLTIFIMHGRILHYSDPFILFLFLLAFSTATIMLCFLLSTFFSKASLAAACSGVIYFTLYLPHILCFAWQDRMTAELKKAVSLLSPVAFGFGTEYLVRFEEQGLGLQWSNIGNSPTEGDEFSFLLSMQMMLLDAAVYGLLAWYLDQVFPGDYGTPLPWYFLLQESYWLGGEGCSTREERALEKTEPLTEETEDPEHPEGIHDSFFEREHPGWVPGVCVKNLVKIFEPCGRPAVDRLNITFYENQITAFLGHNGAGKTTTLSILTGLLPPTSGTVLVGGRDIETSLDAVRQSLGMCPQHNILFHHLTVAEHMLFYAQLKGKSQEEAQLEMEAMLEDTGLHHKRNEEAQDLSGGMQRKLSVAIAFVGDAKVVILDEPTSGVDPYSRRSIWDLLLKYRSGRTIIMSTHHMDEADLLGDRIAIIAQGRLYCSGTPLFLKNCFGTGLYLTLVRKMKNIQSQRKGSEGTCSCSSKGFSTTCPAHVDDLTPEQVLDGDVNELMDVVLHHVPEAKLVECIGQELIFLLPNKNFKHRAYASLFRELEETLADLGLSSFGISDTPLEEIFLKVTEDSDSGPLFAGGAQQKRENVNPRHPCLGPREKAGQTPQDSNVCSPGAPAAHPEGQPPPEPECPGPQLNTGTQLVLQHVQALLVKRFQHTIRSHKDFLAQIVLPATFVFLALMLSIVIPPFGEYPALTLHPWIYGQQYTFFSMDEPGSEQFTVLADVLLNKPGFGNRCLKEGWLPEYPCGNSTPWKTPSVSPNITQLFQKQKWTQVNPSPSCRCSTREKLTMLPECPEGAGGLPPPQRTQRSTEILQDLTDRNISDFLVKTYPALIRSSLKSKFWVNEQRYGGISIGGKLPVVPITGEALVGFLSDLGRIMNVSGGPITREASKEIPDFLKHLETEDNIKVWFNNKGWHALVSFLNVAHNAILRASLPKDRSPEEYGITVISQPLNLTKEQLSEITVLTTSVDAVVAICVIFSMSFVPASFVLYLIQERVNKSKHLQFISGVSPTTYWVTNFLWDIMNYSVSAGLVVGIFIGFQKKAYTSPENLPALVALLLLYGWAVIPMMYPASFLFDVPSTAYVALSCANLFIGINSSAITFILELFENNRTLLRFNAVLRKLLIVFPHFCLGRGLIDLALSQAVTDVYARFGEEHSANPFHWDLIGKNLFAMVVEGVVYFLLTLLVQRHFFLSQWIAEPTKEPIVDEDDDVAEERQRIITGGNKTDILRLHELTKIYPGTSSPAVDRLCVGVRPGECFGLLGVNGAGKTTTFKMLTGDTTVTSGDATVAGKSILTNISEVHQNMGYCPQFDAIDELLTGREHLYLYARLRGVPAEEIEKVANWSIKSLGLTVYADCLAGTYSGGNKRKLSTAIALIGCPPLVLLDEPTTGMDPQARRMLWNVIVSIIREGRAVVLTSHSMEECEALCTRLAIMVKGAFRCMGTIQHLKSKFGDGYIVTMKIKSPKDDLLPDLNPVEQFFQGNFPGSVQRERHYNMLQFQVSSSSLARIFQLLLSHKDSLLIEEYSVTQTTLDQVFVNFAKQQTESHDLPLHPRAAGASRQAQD
T2 sequence (P78363 whole entry): as above

Consider `Nc1ncnc2c1ncn2[C@@H]1O[C@H](COP(=O)(O)OP(=O)(O)OP(=O)(O)O)[C@@H](O)[C@H]1O` [ATP], for which the “effect on 8-azido-ATP photoaffinity labeling” value (in assay [1]; at full-length ABCR [2]) was “essentially abolished” in each case.

As to `Nc1ncnc2c1ncn2[C@@H]1O[C@H](COP(=O)(O)OP(=O)([O-])OP(=O)([O-])O)[C@@H](O)[C@H]1O.[Mg+2]` [MgATP], the “effect on 8-azido ATP/ADP trapping” value at ABCR was “had no effect”.

`CC1=C(/C=C/C(C)=C/C=C/C(C)=C/C=O)C(C)(C)CCC1` [all-trans retinal]: the “stimulation of ATPase activity by all-trans retinal” value (in assay [3]; at full-length ABCR [6]) was 1-2 fold in each case. For the same compound, the “stimulation of ATPase activity by retinal” value in assay [4] and in assay [5] was “not stimulated” in each case. Besides, the “effect on 8-azido ATP/ADP trapping” value at ABCR is recorded as “not dependent on sodium orthovanadate or influenced”.

`[Na+].[Na+].[Na+].[O]=[V]([O-])([O-])[O-]` [sodium orthovanadate]: the “effect on 8-azido ATP/ADP trapping” value on ABCR is “not dependent”.
